{
  "source": "patent US20170176446A1",
  "about": "“Methods for Determining the Oncogenic Condition of Cell, Uses Thereof, and Methods for Treating Cancer” (INSERM (INSTITUT NATIONAL DE LA SANTE ET DE LA RECHERCHE …, priority 2009, published 2017)",
  "key": {"[1]": {"tested_on": "TT cells", "assay": "Effect of OCDO on TT cell proliferation in vitro", "type": "cell-based, human", "details": "5 μM OCDO, 4 days of treatment, versus solvent", "method": "(§1) a) In this example 2, the human medullary thyroid carcinoma cell line TT (American Tissues and Cells Collection) was used. This line is cultured in an F12K medium modified by Kaighn (sold by the company Invitrogen), containing 10% by weight of fetal calf serum and 2.5 ml of a solution of antibiotics (penicillin/streptomycin) at […]. The OCDO tested comes from the company Steraloids. In order to study in vitro the effect of OCDO on cell growth, the TT cells are seeded on to six-well plates (200 000 cells per well) in an F12K medium as defined above. The TT cells are treated every two days either with a solvent (ethanol at 0.1% in PBS phosphate buffer) or with amounts of OCDO in the solvent resulting in concentrations of 0.1, 1, 2.5 or 5 μM. The cells are counted 4 days after seeding. […] At the OCDO concentration of 5 μM, a proliferation induction factor of 1.5 is measured after 4 days of treatment; the induction of proliferation is therefore established in vitro for OCDO concentrations of between 100 nM and 5 μM. […] The animals (5 or 10 mice per group) are monitored regularly in order to measure tumor development. The volume of the tumors is calculated according to the formula L×l^2×0.5, where L is the length and l is the width of the tumor. […]"}, "[2]": {"tested_on": "TT cells", "assay": "Effect of OCDO on TT tumors implanted in Swiss nude mice", "type": "in vivo", "method": "as §1\nThe animals were euthanized after 75 days of treatment and the tumor and the various organs were removed in order to be analyzed histologically. […]"}, "[3]": {"tested_on": "IL10", "assay": "IL10 gene expression in THP1 cells treated with OCDO", "type": "cell-based, human", "details": "10 μM OCDO, 4 hours", "method": "(§2) The THP1 cells (human myeloid cell line supplied by ATCC) are cultured with a culture medium of DMEM type (Dulbecco's modified eagle medium) supplemented with 10% of fetal calf serum and a mixture of antibiotics. The THP1 cells are treated with 10 μM of OCDO for 4 hours. The RNAs are extracted according to a conventional procedure. The complementary DNAs are produced, and then used to measure the expression of the genes of interest. The expression of the genes encoding interleukin 12 (IL12) and interleukin 10 (IL10) were studied, these interleukins representing a pair of cytokines with antagonistic properties. IL12 is an immunostimulatory cytokine, whereas IL10 is an immunosuppressive cytokine. The expression ratio of these two cytokines makes it possible to evaluate the immunosuppressor or immunostimulatory potential of the cell and its ability to promote tumor progression or, on the contrary, to slow it down.\n(§3) The primers used correspond to the human sequences of IL10 and of IL12 and are the following: […]"}, "[4]": {"tested_on": "IL12", "assay": "IL12 gene expression in THP1 cells treated with OCDO", "type": "cell-based, human", "details": "10 μM OCDO, 4 hours", "method": "as §2, §3"}, "[5]": {"tested_on": "T lymphocytes originating from human serum", "details": "concentrations between 1 and 20 μM; cited from earlier work"}, "[6]": {"tested_on": "leukocyte", "details": "concentrations between 1 and 20 μM; cited from earlier work"}, "[7]": {"tested_on": "NK cell", "details": "concentrations between 1 and 20 μM; cited from earlier work"}, "[8]": {"tested_on": "T lymphocytes", "details": "concentrations between 1 and 20 μM; cited from earlier work"}, "[9]": {"tested_on": "phorbol ester-binding protein", "details": "cited from earlier work"}, "[10]": {"tested_on": "MCF7 cells", "assay": "OCDO production by MCF7 cells incubated with [14C]CE, thin-layer chromatography", "type": "cell-based, human", "description": "For assays 1 to 5 and in some of the examples given later in this patent application, MCF7 tumor cells, which originate from the American Tissue Culture Collection (ATCC), were used. […] It is desired to study the activity of ChEH in […] cells by silica thin-layer chromatography. The compounds that it is desired to visualize are the CE and CT compounds defined above. In order to visualize the spots corresponding to CE and CT on a chromatography plate, ^14C-labeled CE and CT compounds were synthesized.\nIn order to be used in assays 1 to 5 which follow, the cells are seeded into 6-well plates at a density of 80 000 cells in a volume of 2 ml. […] After the incubation time desired for the assay, the medium is collected, the cells are washed with cold PBS (phosphate buffer) (2 ml per well) which is pooled with the medium. The cells are then scraped into cold PBS (1 ml for 3 wells); the wells are again rinsed with cold PBS (1 ml for 3 wells). The cell suspension obtained is centrifuged at 1000 rpm for 5 min at 4° C. […] Throughout the rest of this description, the vehicle solvent used is the same as that defined above.\nThe aqueous and organic radioactivities are counted. The organic phases are brought to dryness under argon. The residue is resuspended in 60 μl of ethanol and then deposited, in a proportion of 20 μl per lane, on to the glass-backed silica plates (Whatman LK-6-DF, 20×20), which are used in the various assays (these plates having been preheated at 100° C. for 1 hour). The migration solvent used is ethyl acetate. The chromatography plates are placed in contact with a “phosphor-screen” plate in a cassette overnight. […] In order to evaluate the more or less dense nature of the spots obtained on the plates, the radioactivity is quantified by densitometry with the “Imagequant”™ computer program.\nGenerally, in order to establish the percentages of OCDO inhibition from the thin-layer chromatography (TLC) plates obtained as in assay 2, the radioactive metabolites are identified and quantified on the basis of said plates using a europium-sensitive plate of GP Phosphor screen type (GE Healthcare) and a Storm 840 phosphorimagor (GE Healthcare). The proportion of radiolabeled oxysterols is determined on the autoradiogram obtained by densitometry using the Image Quant 5.2 software. The percentage is calculated on the basis of the ratio between the amount of oxysterols quantified divided by the sum of the amounts of oxysterols (CEE+CE+CT+OCDO). Since the CEE (CE ester) originates exclusively from the CE, the percentage CE is calculated on the basis of the ratio (CE+CEE)/(CE+CEE+CT+OCDO).\nAssay 2 given above was therefore completed by measuring the amounts of the products present when the MCF7 tumor cells are incubated as indicated in detail in assay 2.\nIn order to establish that the link that exists between, on the one hand, the ability of various compounds to inhibit OCDO in an MCF7 tumor cell and, on the other hand, their quality as a ChEH inhibitor, is well-founded, the inhibition coefficients Ki for ChEH relating to a certain number of products was calculated and the production of OCDO by MCF7 cells after incubation of the cells with the same products was measured according to the protocol defined in assay 2 of the present patent application."}, "[11]": {"molecular_target": "T1, ChEH (Homo sapiens, UniProt Q15125)", "T1 construct": "MCF7 tumor cells, which originate from the American Tissue Culture Collection (ATCC), were used; host or cells: MCF7", "T1 sequence (Q15125 whole entry)": "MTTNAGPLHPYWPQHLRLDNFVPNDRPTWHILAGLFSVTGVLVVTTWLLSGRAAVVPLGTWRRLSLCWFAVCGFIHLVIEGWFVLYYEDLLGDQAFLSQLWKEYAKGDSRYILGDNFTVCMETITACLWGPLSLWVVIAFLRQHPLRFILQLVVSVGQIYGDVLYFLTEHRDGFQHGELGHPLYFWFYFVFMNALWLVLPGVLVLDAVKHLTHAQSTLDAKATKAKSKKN", "assay": "Inhibition of ChEH activity in MCF7 cells (TLC of [14C]CE conversion)", "type": "cell-based", "details": "tamoxifen 0.01-5 μM with [14C]CEα; PBPE 0.01-10 μM with [14C]CEβ", "method": "For this experiment, an aminoalkyl sterol included in French patent 2 838 741 (and also see: de Medina et al., J Med Chem: 2009, vol. 52, No. 23, p. 7765-7777), having the formula: 6-N-[2-(3H-imidazol-4-yl)ethylamino]cholestane-3β,5α-diol (DDA), was chosen. […]\nA thin-layer chromatography was carried out, the plate of which has been reproduced in FIG. 23. On this plate, the incubation is carried out, for lane 1, with [^14C]CE; for lane 2, with [^14C]CT; for lane 3, with the vehicle solvent, which is the same as that used for assays 1 to 5; for lane 4, with [14C]CE and 0.1 μM of the aminoalkyl sterol; and for lane 5, with [^14C]CE and a concentration of 1 μM of the aminoalkyl sterol."}, "[12]": {"molecular_target": "T2, ChEH (Mus musculus, UniProt P70245)", "T2 construct": "evaluated in cells of various healthy mouse tissues; from tissue; host or cells: cells from various healthy mouse organs", "T2 sequence (P70245 whole entry)": "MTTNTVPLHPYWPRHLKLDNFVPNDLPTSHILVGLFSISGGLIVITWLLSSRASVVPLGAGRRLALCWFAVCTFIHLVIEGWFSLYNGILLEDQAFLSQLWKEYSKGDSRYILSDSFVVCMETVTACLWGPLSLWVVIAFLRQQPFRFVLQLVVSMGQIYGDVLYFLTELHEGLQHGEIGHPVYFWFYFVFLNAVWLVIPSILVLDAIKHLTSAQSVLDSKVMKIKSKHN", "assay": "Conversion of [14C]CEα in cells of healthy mouse tissues with or without tamoxifen", "type": "cell-based", "details": "incubation with tamoxifen"}, "[13]": {"tested_on": "TS/A cells", "assay": "Tumor size of TS/A tumors implanted in BALB/c mice, intratumoral treatment", "type": "in vivo", "details": "for Tumor size (% control): tamoxifen 10 μM, 100 μl intratumorally once a day", "method": "A cell culture of TS/A cells was first performed. These TS/A cells are mouse mammary adenocarcinomas (see Nanni P et al., Clin. Exp. Metastasis, 1983 October-December; 1(4): 373-80). The cells are cultured, at 37° C. under 5% CO2, in a DMEM medium supplemented with 2 g/liter of sodium carbonate, 1.2 mM of glutamine (pH 7.4 at 23° C.), 5% of fetal bovine serum (Gibco) and 2.5 ml of antibiotics per liter of medium (penicillin/streptomycin).\nThe TS/A cells are recovered with trypsin, washed twice and suspended in PBS buffer. The TS/A cells (approximately 4×10^6 […] cells/0.1 ml) are then injected subcutaneously into the flank of 6-week-old female BALB/c mice (supplied by Charles River). […] The animals (10 mice per group) are monitored regularly for tumor development. The volume of the tumors is calculated according to the following formula: L×l^2×0.5 (L is the length and l is the width of the tumor). The experiment was reproduced twice. The results are given in FIG. 18 (the arrow indicates the beginning of the treatment)."}, "[14]": {"tested_on": "OCDO", "assay": "OCDO content of TS/A tumors by GC/MS", "type": "in vivo, mice", "details": "tamoxifen 10 μM, 100 μl intratumorally once a day", "method": "5 volumes (relative to the mass removed) of buffer (50 mM Tris-HCl, 150 mM KCl, pH=7.4) are added. The tumors are ground and the homogenates are centrifuged for 5 minutes at 2500 rpm at 4° C. […] After centrifugation (to separate the phases), the organic phase is recovered. The organic phase is evaporated to dryness and then the residue is taken up with 0.5 ml of chloroform. The organic extracts are filtered on 0.5 ml silica cartridges. The polar sterols are eluted sequentially:\n1) 0.5 ml of a hexane/chloroform mixture (1/1), 2) 0.5 ml of chloroform, 3) 0.5 ml of ethyl acetate and methanol.\nThe ethyl acetate fractions are evaporated, silylated (50 μl 1/1 acetonitrile/BSTFA) and then analyzed by GC/MS (2 μl) according to the conditions described above."}},
  "data": [
    {"smiles": "CC(C)CCC[C@@H](C)[C@H]1CC[C@H]2[C@@H]3CC(=O)[C@@]4(O)C[C@@H](O)CC[C@]4(C)[C@H]3CC[C@]12C", "note": "[OCDO, 6-oxo-cholestane-3β,5α-diol]", "values": [
      {"measurement": "proliferation induction factor", "setting": "[1]", "result": 1.5},
      {"measurement": "tumor volume versus control animals treated with the solvent", "setting": "[2]; OCDO 50 μg/kg subcutaneously once a day, 5 days out of 7", "result": "almost three times larger"},
      {"measurement": "invasion of the lymph nodes versus solvent", "setting": "[2]; OCDO 50 μg/kg, after 75 days of treatment", "result": "Twice as much invasion of the lymph nodes"},
      {"measurement": "expression of the immunosuppressive cytokine IL10", "setting": "[3]", "result": "stimulates the expression"},
      {"measurement": "expression of the cytokine IL12", "setting": "[4]", "result": "reduces the expression"},
      {"measurement": "rosette formation by T lymphocytes", "setting": "[5]", "result": "inhibit rosette formation by T lymphocytes"},
      {"measurement": "leukocyte mobility", "setting": "[6]", "result": "inhibit leukocyte mobility"},
      {"measurement": "NK cell toxicity in mice", "setting": "[7]", "result": "induce NK cell toxicity"},
      {"measurement": "cytolytic activity produced by T lymphocytes in mice", "setting": "[8]", "result": "inhibit the cytolytic activity produced by T lymphocytes"},
      {"measurement": "binding to a phorbol ester-binding protein", "setting": "[9]", "result": "binds to a phorbol ester-binding protein"}
    ]},
    {"smiles": "CC/C(=C(\\c1ccccc1)c1ccc(OCCN(C)C)cc1)c1ccccc1", "note": "[Tamoxifen, 2-[4-[(Z)-1,2-di(phenyl)but-1-enyl]phenoxy]-N,N-dimethylethanamine]", "values": [
      {"measurement": "% OCDO", "setting": "[10]; MCF7 cells, [14C]CEα, three days, concentration given with each compound, share of labeled oxysterols", "result": 6.9, "unit": "%"},
      {"measurement": "OCDO production by MCF-7 (% control)", "setting": "[10]; concentration in μM in parentheses after each molecule, control = 100", "result": "<1", "unit": "% control"},
      {"measurement": "inhibition of the ChEH activity (3 days) in MCF7 cells", "setting": "[11]", "result": "Dose-dependent inhibition"},
      {"measurement": "formation of CT from [14C]CEα in healthy mouse tissue cells", "setting": "[12]", "result": "the CT compound no longer appears"},
      {"measurement": "Tumor size (% control)", "setting": "[13]; Day 28", "result": "73.5 ± 8", "unit": "% control"},
      {"measurement": "Tumor size (% control)", "setting": "[13]; Day 37", "result": "46.2 ± 7", "unit": "% control"},
      {"measurement": "tumor mass", "setting": "[13]; tumor removed on day 28 from one treated animal, control animal tumor 2 g", "result": 1.45, "unit": "g"},
      {"measurement": "OCDO (% control)", "setting": "[14]; Day 28", "result": "19.2 ± 4", "unit": "% control"},
      {"measurement": "OCDO (% control)", "setting": "[14]; Day 37", "result": "8.4 ± 4", "unit": "% control"}
    ]}
  ]
}
